Active and inactive are the calls of the source. No cut-off for these calls is given here.
Key:
HEK-TE [1] = assay: Increase in histone H3 acetylation in human HEK-TE cells at 5 uM after 6 hrs by Western blot analysis; format: functional, cell-based
[2] = molecular target: Histone acetyltransferase KAT2A (Homo sapiens) (UniProt Q92830); assay: Inhibition of GCN5 in human U937 cells at 50 uM; format: cell-based; details: U-937
U-937 [3] = assay: Cell cycle arrest in human U937 cells assessed as accumulation at S phase at 25 uM after 42 hrs by flow cytometry; format: functional, cell-based
U-937 [4] = assay: Increase in histone H3 acetylation in human U937 cells at 5 uM after 20 hrs by Western blot analysis; format: functional, cell-based
HEK-TE [5] = assay: Increase in histone H3 acetylation in human HEK-TE cells at 50 uM after 6 hrs by Western blot analysis; format: functional, cell-based
U-937 [6] = assay: Inhibition of p300/CBP in human U937 cells at 50 uM; format: cell-based; design: scale not given: the % may be the effect or the level left
U-937 [7] = assay: Increase in histone H3 acetylation in human U937 cells at 50 uM after 20 hrs by Western blot analysis; format: functional, cell-based
[8] = molecular target: Histone acetyltransferase KAT2B (Homo sapiens) (UniProt Q92831); assay: Effect on PCAF in human U937 cells assessed as increase in acetylation activity at 50 uM; format: cell-based; details: U-937
U-937 [9] = assay: Effect on non histone alpha-tubulin in human U937 cells at 50 uM after 16 hrs by Western blot analysis; format: functional, cell-based
U-937 [10] = assay: Induction of apoptosis in human U937 cells at 25 uM after 42 hrs by flow cytometry; format: functional
U-937 [11] = assay: Inhibition of recombinant CBP in human U937 cells at 50 uM; format: cell-based; design: scale not given: the % may be the effect or the level left
U-937 [12] = assay: Increase in histone H3 acetylation in human U937 cells at 50 uM after 16 hrs by Western blot analysis; format: functional, cell-based
U-937 [13] = assay: Induction of apoptosis in human U937 cells at 50 uM after 42 hrs by flow cytometry; format: functional

Histone acetyltransferase KAT2A (Homo sapiens), sequence (Q92830 2-837 limits assumed): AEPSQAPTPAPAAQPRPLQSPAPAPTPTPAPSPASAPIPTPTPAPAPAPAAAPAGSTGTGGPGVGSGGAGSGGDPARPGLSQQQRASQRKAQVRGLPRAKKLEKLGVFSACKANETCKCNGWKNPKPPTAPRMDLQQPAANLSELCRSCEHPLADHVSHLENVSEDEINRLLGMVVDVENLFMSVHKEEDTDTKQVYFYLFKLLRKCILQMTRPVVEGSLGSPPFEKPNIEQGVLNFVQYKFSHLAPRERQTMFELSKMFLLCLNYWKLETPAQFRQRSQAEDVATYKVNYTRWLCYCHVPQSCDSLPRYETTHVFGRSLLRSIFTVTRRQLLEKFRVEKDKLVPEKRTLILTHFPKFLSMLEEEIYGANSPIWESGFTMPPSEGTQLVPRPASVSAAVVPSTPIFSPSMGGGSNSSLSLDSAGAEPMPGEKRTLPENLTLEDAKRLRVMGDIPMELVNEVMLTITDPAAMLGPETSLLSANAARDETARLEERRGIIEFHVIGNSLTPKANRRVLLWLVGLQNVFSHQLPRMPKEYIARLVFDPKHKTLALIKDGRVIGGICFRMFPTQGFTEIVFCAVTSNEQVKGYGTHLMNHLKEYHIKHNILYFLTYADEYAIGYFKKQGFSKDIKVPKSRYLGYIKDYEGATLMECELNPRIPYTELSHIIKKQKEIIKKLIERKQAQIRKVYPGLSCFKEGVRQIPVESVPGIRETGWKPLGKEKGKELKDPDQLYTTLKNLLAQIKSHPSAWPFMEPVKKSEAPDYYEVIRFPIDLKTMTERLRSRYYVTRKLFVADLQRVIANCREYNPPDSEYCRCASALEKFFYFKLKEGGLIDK
Histone acetyltransferase KAT2B (Homo sapiens), sequence (Q92831 whole entry, looked up): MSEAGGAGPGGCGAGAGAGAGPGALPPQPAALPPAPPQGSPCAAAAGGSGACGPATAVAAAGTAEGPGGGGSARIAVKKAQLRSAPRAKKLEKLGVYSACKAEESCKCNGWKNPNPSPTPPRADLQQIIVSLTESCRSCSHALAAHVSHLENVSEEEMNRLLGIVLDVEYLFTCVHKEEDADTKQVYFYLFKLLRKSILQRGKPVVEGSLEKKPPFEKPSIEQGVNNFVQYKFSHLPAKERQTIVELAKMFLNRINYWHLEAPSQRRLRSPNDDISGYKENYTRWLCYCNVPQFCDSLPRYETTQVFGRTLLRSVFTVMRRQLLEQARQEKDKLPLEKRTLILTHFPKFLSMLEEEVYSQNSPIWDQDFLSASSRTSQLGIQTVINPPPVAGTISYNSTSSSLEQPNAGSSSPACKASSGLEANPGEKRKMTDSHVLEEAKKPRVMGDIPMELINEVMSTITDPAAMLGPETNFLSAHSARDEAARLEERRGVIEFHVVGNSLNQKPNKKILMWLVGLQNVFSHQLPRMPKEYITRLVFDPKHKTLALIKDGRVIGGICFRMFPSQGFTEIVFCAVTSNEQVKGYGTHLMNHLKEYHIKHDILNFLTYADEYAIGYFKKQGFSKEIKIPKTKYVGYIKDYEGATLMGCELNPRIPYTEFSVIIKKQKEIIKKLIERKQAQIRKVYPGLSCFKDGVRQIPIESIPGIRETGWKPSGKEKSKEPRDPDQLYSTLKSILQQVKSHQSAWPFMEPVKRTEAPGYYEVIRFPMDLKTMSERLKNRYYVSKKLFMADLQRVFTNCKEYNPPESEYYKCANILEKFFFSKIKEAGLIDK

SMILES | Activity (HEK-TE [1]) | Activity (U-937 [3]) | Activity (U-937 [6]) [%] | Activity (U-937 [10]) [%] | Activity (U-937 [11]) [%] | also measured
O=C(CCCCCCC(=O)Nc1ccccc1)NO | Active | – | – | – | – | –
CCCCCCCCCCCCCCC=C(C(=O)OCC)C(=O)OCC | Active | Active | 74 | 23.9 | 81 | Activity [2]: inactive; Activity (U-937 [4]): Active; Activity (HEK-TE [5]): Active; Activity (U-937 [7]): Active; Activity [8]: Active; Activity (U-937 [9]): inactive; Activity (U-937 [12]): Active; Activity (U-937 [13]): 94.4%
C=C1C(=O)O[C@H](CCC)[C@H]1C(=O)O | – | – | – | – | 55 | –
COc1cc(/C=C/C(=O)CC(=O)/C=C/c2ccc(O)c(OC)c2)ccc1O | – | – | 46 | – | – | –
C=CC/C=C\C/C=C\CCCCCCCc1cccc(O)c1C(=O)O | – | – | – | – | 62 | –
CCCCCCCCCCCCCC=C(C(=O)OCC)C(=O)OCC | – | Active | – | 23.8 | – | –

— ChEMBL document CHEMBL1145635, “Identification of long chain alkylidenemalonates as novel small molecule modulators of histone acetyltransferases” (2008)
